Data set [1] deals with C-type lectin-like domain of a recombinant natural killer cell receptor. Conditions: Kogelberg et al; cited from earlier work.
A further data set has as its target follistatin (Rattus norvegicus, UniProt P21674). Conditions: Innis et al; cited from earlier work.
Another data set deals with FGF receptors. To be noted: Yeh et al; cited from earlier work.
The target of data set [2] is pro-inflammatory chemokine MCP-1 (Homo sapiens, UniProt P13500). Conditions: Yonghao et al; cited from earlier work.
In another data set the target is hepatocyte growth factor (Homo sapiens, UniProt P14210). To be noted: Zhou et al; cited from earlier work.
The test system of data set [3] is antigen stimulated mice spleen cells. To be noted: in vitro; cited from earlier work.
For a further data set, the system named is feline herpes infection. Conditions: reactivation of feline herpes infection; Roberts et al; cited from earlier work.
In another data set the test system is β-glucosidases. To be noted: Kolarova et al; cited from earlier work.
Another data set relates to interleukin-2 synthesis. To be noted: antigen stimulated mice spleen cells in vitro; cited from earlier work.
In the next data set the test system is IFN synthesis. To be noted: antigen stimulated mice spleen cells in vitro; cited from earlier work.
For data set [4] the following is noted: acid conditions of the stomach; cited from earlier work.
For another data set, the system named is articular inflammation. To be noted: cited from earlier work.
Another data set concerns interleukin-10 synthesis. To be noted: antigen stimulated mice spleen cells in vitro; cited from earlier work.
Another data set concerns IL-6 synthesis. Briefly: PHA stimulated human whole blood cytokine synthesis: IL-6. The format is cell-based. To be noted: 0.01 μM, days 1-4. As to the method:
(§1) Blood was taken from a healthy young volunteer, into heparin Vacutainers®. Whole-blood was diluted to give a final concentration of 1/10 in culture medium (CM). CM consisted of RPMI 1640 with L-glutamine, penicillin and streptomycin. PHA (phytohaemagglutinin) solution and N-acetyl-β,β-diglucosylamine octasulphate (DOS) and PHA solution were added to non-control samples. Final drug concentrations tested were 100 μM, 1 μM, 0.1 μM and 0.01 μM. All samples were tested in triplicate.
(§2) Reagents were placed in four sets of 24-well (6×4) flat-bottomed plates (Corning US) and incubated for 1, 2, 3 and 4 days respectively (incubator conditions: 37° C., humid and 5% CO2). […]
(§3) The protocol of Lagrelius et al. was followed (Cytokine, 2006, 33, pp. 156-165). The culture supernatants were analysed once for concentrations of IL-1α, IL-1β, IL-2, IL-4, IL-5, IL-6, IL-7, IL-10, IL-12, IL-13, IL-17, IFNγ, GCSF, GM-CSF, MCP-1, RANTES, VEGF and TNFα. The cytokines were measured simultaneously using a Bio-Plex assay. […] A monoclonal antibody specific for each cytokine of interest is coupled onto a particular set of beads with a known internal fluorescence, and several combinations of cytokine antibody coated beads can be included and thus multiple cytokines are measured simultaneously. […] A minimum of 100 beads per region were analysed. […]

Another data set relates to IFNγ synthesis. Nature of the data set: PHA stimulated human whole blood cytokine synthesis: IFNγ. The format is cell-based. To be noted: 0.01 μM, days 1-4. The procedure:
as §1, §2, §3

Another data set relates to IL-17 synthesis. Briefly: PHA stimulated human whole blood cytokine synthesis: IL-17. To be noted: 0.01 μM, days 1-4. The format is cell-based. As to the method: as §1, §2, §3
Another data set concerns IL-10 synthesis. Briefly: PHA stimulated human whole blood cytokine synthesis: IL-10. Conditions: 0.01 μM, days 1-4. The format is cell-based. As to the method:
as §1, §2, §3

For the next data set, the system named is IL-1α synthesis. Nature of the data set: PHA stimulated human whole blood cytokine synthesis: IL-1α. The format is cell-based. Conditions: 0.01 μM, days 1-4. As to the method: as §1, §2, §3
Another data set deals with GCSF synthesis. Briefly: PHA stimulated human whole blood cytokine synthesis: GCSF. The format is cell-based. To be noted: 0.01 μM, days 1-4. As to the method: as §1, §2, §3
The next data set relates to IL-5 synthesis. Nature of the data set: PHA stimulated human whole blood cytokine synthesis: IL-5. The format is cell-based. Conditions: 0.01 μM, days 1-4. The procedure: as §1, §2, §3
The subject of data set [5] is TNFα synthesis. Briefly: PHA stimulated human whole blood cytokine synthesis: TNFα. The format is cell-based. To be noted: 0.01 μM, days 1-4, Bio-Plex. The procedure:
as §1, §2, §3

The next data set has as its system GM-CSF synthesis. Briefly: PHA stimulated human whole blood cytokine synthesis: GM-CSF. The format is cell-based. Conditions: 0.01 μM, days 1-4. The procedure: as §1, §2, §3
Another data set relates to IL-4 synthesis. Briefly: PHA stimulated human whole blood cytokine synthesis: IL-4. The format is cell-based. Conditions: 0.01 μM, days 1-4. As to the method:
as §1, §2, §3

For another data set, the system named is IL-2 synthesis. Briefly: PHA stimulated human whole blood cytokine synthesis: IL-2. The format is cell-based. To be noted: 0.01 μM, days 1-4. The procedure: as §1, §2, §3
A further data set relates to IL-13 synthesis. Nature of the data set: PHA stimulated human whole blood cytokine synthesis: IL-13. The format is cell-based. Conditions: 0.01 μM, days 1-4. As to the method: as §1, §2, §3
In data set [6] the test system is TNFα synthesis. Briefly: LPS stimulated U937 macrophage TNFα synthesis. The format is cell-based, human. Conditions: PMA differentiated U937; 80 nM lps 72 hours; 0.10, 1.00, 10.00 and 100.00 μM. As to the method:
U937 human monocytes were incubated with 5 μg/ml PMA (phorbol myristate acetate) for 5 days in order to induce differentiation. N-acetyl-β,β-diglucosylamine octasulphate (DOS) was added to the macrophages produced at concentrations of 0 (control), 0.10, 1.00, 10.00 and 100.00 μM.

Another data set deals with VEGF synthesis. Briefly: PHA treated human whole blood cytokine synthesis: VEGF. Conditions: 0.01 μM; human whole blood in which VEGF synthesis has been inhibited by PHA; days 1-4. The format is cell-based. As to the method:
as §1, §2, §3

In data set [7] the test system is TNFα synthesis. Nature of the data set: TNFα synthesis in whole blood stimulated with 5 μg/ml PHA. The format is cell-based. To be noted: human whole blood 1:10, 5 μg/ml PHA for 4 days; 0.01, 0.1 or 1 μM; ELISA days 1-4. As to the method:
Human whole blood was diluted 1:10 in RPMI and stimulated with 5 μg/ml phytohaemagglutinin (PHA) for 4 days in the absence or presence of N-acetyl-β,β-diglucosylamine octasulphate (DOS) or N-acetyl-β,β-diglucosylamine oligosulphate 1200 at concentrations of 0.01, 0.1 or 1 μM. The TNFα concentrations were assayed by ELISA on days 1, 2, 3 and 4.
On the technique in general: An ELISA detects its analyte on a solid surface through an enzyme-linked reagent.

For another data set, the system named is IL-1β synthesis. Nature of the data set: PHA stimulated human whole blood cytokine synthesis: IL-1β. The format is cell-based. To be noted: 0.01 μM, days 1-4. As to the method: as §1, §2, §3
A further data set concerns IL-7 synthesis. Nature of the data set: PHA stimulated human whole blood cytokine synthesis: IL-7. Conditions: 0.01 μM, days 1-4. The format is cell-based. As to the method: as §1, §2, §3
For data set [8] the following is noted: Cahalon et al; cited from earlier work.
The test system of another data set is inflamed joints. To be noted: Ronca et al; cited from earlier work.

Chain of pro-inflammatory chemokine MCP-1 (P13500 24-99): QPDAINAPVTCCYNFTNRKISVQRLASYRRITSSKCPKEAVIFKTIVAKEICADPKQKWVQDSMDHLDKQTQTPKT
Chain of hepatocyte growth factor (P14210 31-127 limits assumed, species assumed): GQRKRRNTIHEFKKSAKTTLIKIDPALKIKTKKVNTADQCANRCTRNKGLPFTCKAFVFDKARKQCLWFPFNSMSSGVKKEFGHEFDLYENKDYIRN
Chain of follistatin (P21674 93-165 limits assumed): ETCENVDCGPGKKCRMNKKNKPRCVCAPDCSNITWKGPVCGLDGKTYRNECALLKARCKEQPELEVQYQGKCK

On to `O=S(=O)(O)OC[C@H]1O[C@@](COS(=O)(=O)O)(O[C@H]2O[C@H](COS(=O)(=O)O)[C@@H](OS(=O)(=O)O)[C@H](OS(=O)(=O)O)[C@H]2OS(=O)(=O)O)[C@@H](OS(=O)(=O)O)[C@@H]1OS(=O)(=O)O` [sucrose octasulphate], for which the “binding to natural killer cell receptor C-type lectin-like domain” value in data set [1] is reported as “bind”. Further, the binding to follistatin entry on follistatin is listed as “bind”. Moreover, the “FGF dependent dimerisation of FGF receptors” value (shortened to “FGF dependent dimerisation”) in the data set on FGF receptors is reported as “induced FGF dependent dimerisation of FGF receptors”. Further, the “binding to MCP-1” value in data set [2] is given as “bind”. The “binding to hepatocyte growth factor” value on hepatocyte growth factor is “bind”.
Regarding `OC[C@H]1O[C@@H](N[C@@H]2O[C@H](CO)[C@@H](O)[C@H](O)[C@H]2O)[C@H](O)[C@@H](O)[C@@H]1O` [di-β-D-glucosylamine], the “antigen induced immune cell proliferation” value in data set [3] is recorded as “inhibits”. Further, in the data set with feline herpes infection, the “development of ocular inflammation” value is given as “prevents the development of ocular inflammation”. The “inhibition of β-glucosidases” value in the data set with β-glucosidases is “inhibit β-glucosidases”. For the same compound, the interleukin-2 synthesis result in the data set on interleukin-2 synthesis is recorded as “inhibits”. In addition, the IFN synthesis entry in the data set on IFN synthesis is “inhibits”. Further, the “hydrolysis of the glycosylamine group” value in data set [4] is “readily hydrolysed”. Moreover, in the data set with articular inflammation (mice, parenteral routes, Bolton et al), the articular inflammation result is given as “inhibits articular inflammation”. The “activity by the oral route” value in the data set on articular inflammation (oral route) is “inactive”. The interleukin-10 synthesis entry in the data set on interleukin-10 synthesis is listed as “inhibits”.
Turning to 4,6-dihydroxysucrose hexasulphate, in the data set with FGF receptors, the “FGF dependent dimerisation” value was “not at all”.
For 2-hydroxysucrose heptasulphate, in the data set with FGF receptors, the “FGF dependent dimerisation” value is recorded as “much lesser extent”.
In the case of `CC(=O)N([C@@H]1O[C@H](COS(=O)(=O)O)[C@@H](OS(=O)(=O)O)[C@H](OS(=O)(=O)O)[C@H]1OS(=O)(=O)O)[C@@H]1O[C@H](COS(=O)(=O)O)[C@@H](OS(=O)(=O)O)[C@H](OS(=O)(=O)O)[C@H]1OS(=O)(=O)O` [N-acetyl-β,β-diglucosylamine octasulphate], the “PHA stimulated synthesis of IL-6” value in the data set on IL-6 synthesis is “inhibits”. In the data set with IFNγ synthesis, the “PHA stimulated synthesis of IFNγ” value is on record as “inhibits”. Besides, the “PHA stimulated synthesis of IL-17” value in the data set with IL-17 synthesis is “inhibits”. In addition, in the data set with IL-10 synthesis, the “PHA stimulated synthesis of IL-10” value is “inhibits”. The “PHA stimulated synthesis of IL-1α” value in the data set on IL-1α synthesis is “inhibits”. Moreover, in the data set on GCSF synthesis, the “PHA stimulated synthesis of GCSF” value is on record as “inhibits”. Also, the “PHA stimulated synthesis of IL-5” value with IL-5 synthesis is “inhibits”. Moreover, in the data set on TNFα synthesis [5], the “PHA stimulated synthesis of TNFα” value is recorded as “inhibits”. In addition, the “PHA stimulated synthesis of GM-CSF” value in the data set on GM-CSF synthesis is listed as “inhibits”. Moreover, in the data set with IL-4 synthesis, the “PHA stimulated synthesis of IL-4” value is given as “inhibits”. The “PHA stimulated synthesis of IL-2” value in the data set on IL-2 synthesis was “inhibits”. For the same compound, the “PHA stimulated synthesis of IL-13” value in the data set on IL-13 synthesis was “inhibits”. For the same compound, the results for the “inhibition of TNFα synthesis” value with TNFα synthesis [6] and with TNFα synthesis [7] were “inhibited TNFα synthesis at all concentrations down to 0.1 μM” and “effectively inhibit TNFα synthesis”, respectively. In the data set with VEGF synthesis, the “level of VEGF” value is “increased”. In the data set on IL-1β synthesis, the “PHA stimulated synthesis of IL-1β” value is “inhibits”. In the data set with IL-7 synthesis, the “level of IL-7” value is given as “increased”.
For `CC(=O)N[C@H]1C(O)O[C@H](CO)[C@@H](O[C@@H]2OC(C(=O)O)=C[C@H](O)[C@H]2O)[C@@H]1O` (stereo partly drawn) [desulphated heparin disaccharide, O-(α-L-ido-4-enepyranosyluronic acid)-(1→4)-2-deoxy-N-acetyl-D-glucoseamine], in data set [8], the “effectiveness as an anti-inflammatory agent” value is on record as “ineffective”.
chondroitin sulphate: the “inflammatory cell accumulation and inflammation” value in the data set with inflamed joints was “reduces inflammatory cell accumulation and inflammation”.
